In PubChem BioAssay (NCI):
Several values for one entry are separate records, joined by “and”; a condition that tells them apart may be missing. Equal values may be shown once.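 Grown in 96-well plates, cells were treated for 48 hours with each compound at five concentrations. Insufficient inhibition: endpoint recorded as highest concentration tested. GI50: concentration for 50% inhibition of growth. TGI: concentration producing complete growth inhibition.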

Legend:
Assay in all cases: DTP human tumour cell line panel, 48 h
786-0 renal = tested on: 786-0 renal
M14 melanoma = tested on: M14 melanoma
MDA-MB-231 breast = tested on: MDA-MB-231 breast
RXF 393 renal = tested on: RXF 393 renal
MOLT-4 leukemia = tested on: MOLT-4 leukemia
SF-268 CNS = tested on: SF-268 CNS
HS 578T breast = tested on: HS 578T breast
IGROV1 ovarian = tested on: IGROV1 ovarian
TK-10 renal = tested on: TK-10 renal
SNB-75 CNS = tested on: SNB-75 CNS

Row | Compound | TGI (786-0 renal) | TGI (M14 melanoma) | TGI (MDA-MB-231 breast) [µM] | TGI (RXF 393 renal) | TGI (MOLT-4 leukemia) | TGI (SF-268 CNS) | TGI (HS 578T breast) | GI50 (786-0 renal) [µM] | GI50 (RXF 393 renal) [µM] | TGI (IGROV1 ovarian) | GI50 (MOLT-4 leukemia) | GI50 (SF-268 CNS) [µM] | GI50 (TK-10 renal) [µM] | TGI (TK-10 renal) | GI50 (M14 melanoma) [µM] | GI50 (MDA-MB-231 breast) [µM] | GI50 (IGROV1 ovarian) [µM] | GI50 (SNB-75 CNS) [µM] | TGI (SNB-75 CNS) [µM] | GI50 (HS 578T breast) [µM]
1 | Cc1ccc(NC(=O)/C(Cc2cc(=O)oc3cc(O)ccc23)=N\NC(C)(C)C)cc1C | > 100 µM | > 100 µM | > 100 | > 100 µM | > 100 µM | > 100 µM | > 100 µM |  |  |  |  |  |  |  |  |  |  |  |  | 
2 | CO[C@H]1C[C@](C)(O)Cc2cc3c(c(O)c21)C(=O)c1c(O)cc2c(c1C3=O)O[C@@H]1O[C@@]2(C)[C@H](O)[C@@H](N(C)C)[C@@H]1O | 1.8 µM and 2.18 µM | 2.58 µM and 4.49 µM | 8 | 4.01 µM and 4.21 µM | 0.186 µM and 0.664 µM | 7.01 µM and 11.9 µM | 22.6 µM | 0.302 | 1.9 | 9.16 µM and 18.7 µM | 0.0296 µM and 0.0271 µM | 1.52 | 3.89 | 6.49 µM and 21.5 µM |  |  |  |  |  | 
3 | CC(=O)/C=C/C1=C(c2csc3ccccc23)c2ccccc2CC1 | > 100 µM | 37.3 µM | 69.5 | 46.5 µM | > 100 µM | > 100 µM | > 100 µM | 35.7 | 20.2 | > 100 µM | 15.6 µM | 31.8 | 23.5 | 92.9 µM | 16.5 | 22.8 | 15.4 | 22.4 | > 100 | 35
4 | O=C1C(=O)c2ccccc2C(O)=C1CCCc1ccc(C2CCCCC2)cc1 | 43.5 µM | 22.4 µM | 31 | 26.8 µM | > 100 µM | 49.6 µM | 56.9 µM | 3.73 | 11.5 |  | 4.24 µM | 3.8 | 23.4 | > 100 µM | 5.93 | 10.4 |  | 5.17 | 91 | 8.59
5 | C=C1C(=O)O[C@H]2[C@H]1CC/C(COC(=O)CCCc1c[nH]c3ccccc13)=C\CC[C@@]1(C)O[C@@H]21 | 3.2 µM | 3.87 µM | 3.7 | 2.85 µM | 4.94 µM | 3.46 µM | 20.9 µM | 1.6 | 1.46 | 3.61 µM | 1.53 µM | 1.69 | 1.64 | 3.07 µM | 1.66 | 1.78 | 1.63 | 12.6 | 26.6 | 3.19
6 | C=C1C(=O)O[C@H]2[C@H]1CC/C(COC(=O)OC/C1=C/CC[C@@]3(C)O[C@H]3[C@H]3OC(=O)[C@@H](CN(C)C)[C@@H]3CC1)=C\CC[C@@]1(C)O[C@@H]21 | 2.79 µM | 3.35 µM | 3.07 | 1.35 µM | 3.75 µM | 13.7 µM | 26.9 µM | 1.31 | 0.306 | 8.22 µM | 0.874 µM | 3.07 | 1.18 | 2.57 µM | 1.54 | 1.49 | 2.3 | 4.89 | 25.1 | 4.39
7 | CCCCCCCCCCCCCCCCOP(=O)([O-])OCC[N+](C)(C)C | 7.76 µM and 25.4 µM |  |  |  |  | 13.7 µM and 52.7 µM | 18.9 µM and 40.7 µM | 2.33 | 0.427 | 3.7 µM and 14 µM | 0.868 µM | 2.93 | 0.182 |  | 1.56 | 1.19 | 0.901 | 1.43 |  | 4.21
8 | COC(=O)C(=O)C(C(=O)C(=O)Nc1ccccc1OC)c1nc2ccc([N+](=O)[O-])cc2[nH]c1=O (stereo unspecified) | > 100 µM | > 100 µM | > 100 | > 100 µM | > 100 µM | > 100 µM | > 100 µM |  |  | > 100 µM |  |  |  | > 100 µM |  |  |  |  | > 100 | 
9 | Cn1nc(C(F)(F)F)c(-c2cc(C(F)(F)F)cc(C(F)(F)F)c2)c1-c1ccc(OCc2ccc(Cl)cc2)cc1O | 3.28 µM | 5.27 µM | 5.69 | 6.76 µM | 11 µM | 13 µM | 6.78 µM | 1.63 | 2.32 | 12.5 µM | 2.61 µM | 2.65 | 3.11 | 11.1 µM | 2.07 | 2.15 | 2.71 | 2.17 | 10.5 | 2.19
10 | O=C(c1ccco1)c1c(C(F)(F)F)n([O-])c2cc(C(F)(F)F)ccc2[n+]1=O | 0.998 µM | 3.05 µM | 2.67 | 0.929 µM | 0.162 µM | 2.66 µM |  | 0.479 | 0.43 | 2.52 µM | 0.0773 µM | 0.87 | 1.57 | 3.1 µM | 1.62 | 1.08 | 0.822 | 1.55 | 2.96 | 1.36
11 | CC(=O)OC12c3ccccc3-c3ccccc3C1C(C(=O)O)C2C(=O)O (stereo unspecified) | > 10 µM | > 10 µM | > 10 | > 10 µM | > 10 µM | > 10 µM | > 10 µM |  |  | > 10 µM |  |  |  | > 10 µM |  |  |  |  |  | 
12 | Cc1[nH]c(N)nc(=S)c1CCC(=O)O | > 100 µM | > 100 µM | > 100 | > 100 µM | > 100 µM | > 100 µM | > 100 µM |  |  | > 100 µM |  |  |  | > 100 µM |  |  |  |  |  | 
13 | COc1ccc(/C=C2\SC(=Nc3ccccc3)NC2=O)cc1 | 30.1 µM |  | 38.7 | 26.8 µM | > 100 µM | 88.3 µM | 40.7 µM | 8.25 | 4.68 | > 100 µM | 4.77 µM | 8.18 | 41.4 | > 100 µM |  | 4.58 | 13.6 | 2.42 | 10.9 | 4.32
14 | N#C/C(=N\Nc1ccccc1)C(=O)Nc1cc(-c2ccccc2)nn1-c1ccccc1 | 16.3 µM | > 100 µM | > 100 | 7.69 µM | > 100 µM | > 100 µM | > 100 µM | 3.04 | 2.26 | > 100 µM | 3.75 µM | 3.85 | 4.27 | > 100 µM | 2.68 | 3.34 | 4.49 |  |  | 3.5
